Activity calls are given as the source filed them. The calls are words filed in the database; no cut-off is given here.
Tests used:
K-562R [1] = test: Cytotoxicity against human K562-r cells assessed as reduction in metabolic activity; assay type: functional, cell-based
K562 = test: Cytotoxicity against human K562 cells assessed as reduction in metabolic activity at 10 uM measured after 72 hrs by MTT assay; assay type: functional, cell-based
K-562R [2] = test: Sensitization of imatinib-induced cytotoxicity against human K562-r cells assessed as reduction in metabolic activity at 0.5 to 6 uM measured after 72 hrs by MTT assay; assay type: functional, cell-based; settings: dose 0.5-6 µM
K-562R [3] = test: Inhibition of side population phenotype in human K562-r cells at 10 uM incubated for 90 mins by DCV staining based flow cytometric analysis relative to control; assay type: functional
K-562R [4] = test: Cytotoxicity against human K562-r cells assessed as cell viability at 10 uM incubated for 72 hrs by MTT assay relative to control; assay type: functional; settings: read-out: Activity
K562-r [5] = test: Effect on STAT5 phosphorylation in human K562-r cells at 4 uM measured after 6 hrs by Western blotting based immunoassay; assay type: cell-based
COS-7 = test: Cytotoxicity against African green monkey COS-7 cells assessed as reduction in metabolic activity at 10 uM incubated for 72 hrs by MTT assay; assay type: toxicity, cell-based; settings: chlorocebus aethiops, cos-7, 72 h
K-562R [6] = test: Effect on ABCB1 protein expression in human K562-r cells at 4 uM incubated for 72 hrs by Western blotting based immunoassay; assay type: functional, cell-based
K562-r [7] = test: Inhibition of STAT5 phosphorylation in human K562-r cells at 4 uM measured after 6 hrs in presence of imatinib by Western blotting based immunoassay; assay type: cell-based
K562-r [8] = test: Inhibition of STAT5 phosphorylation in human K562-r cells at 4 uM measured after 72 hrs by Western blotting based immunoassay; assay type: cell-based
K-562R [9] = test: Sensitization of imatinib-induced cytotoxicity against human K562-r cells assessed as reduction in metabolic activity at 10 uM measured after 72 hrs by MTT assay; assay type: functional, cell-based
K562-r [10] = test: Effect on STAT5 phosphorylation in human K562-r cells at 4 uM measured after 72 hrs by Western blotting based immunoassay; assay type: cell-based
K-562R [11] = test: Inhibition of side population phenotype in human K562-r cells at 0.1 uM incubated for 90 mins by DCV staining based flow cytometric analysis; assay type: functional, cell-based
K562-r [12] = test: Effect on STAT5 phosphorylation in human K562-r cells at 4 uM measured after 6 hrs in presence of imatinib by Western blotting based immunoassay; assay type: cell-based
K-562R [13] = test: Sensitization of imatinib-induced cytotoxicity against human K562-r cells assessed as cell viability at 10 uM measured after 72 hrs by MTT assay relative to control; assay type: functional; settings: read-out: Activity
K-562R [14] = test: Sensitization of imatinib-induced cytotoxicity against human K562-r cells assessed as metabolic activity at 8 uM measured after 72 hrs by MTT assay relative to control; assay type: functional
MCF7 [15] = test: Inhibition of side population phenotype in human MCF7 cells expressing ABCG2 at 10 uM incubated for 90 mins by DCV staining based flow cytometric analysis; assay type: functional, cell-based
A2780/Taxol [16] = test: Sensitization of paclitaxel-induced cytotoxicity against human Paclitaxel-resistant A2780 cells assessed as reduction in metabolic activity at 10 uM measured after 72 hrs by MTT assay; assay type: functional, cell-based
[17] = test system: Paclitaxel-resistant IGROV-1 cell; test: Inhibition of side population phenotype in human Paclitaxel-resistant IGROV-1 cells expressing ABCB1 at 10 uM incubated for 90 mins by DCV staining based flow cytometric analysis; assay type: functional
[18] = test system: Docetaxel-resistant PC-3 cell; test: Inhibition of side population phenotype in human Docetaxel-resistant PC-3 cell expressing ABCB1 at 10 uM incubated for 90 mins by DCV staining based flow cytometric analysis; assay type: functional
A549 [19] = test: Inhibition of STAT5 phosphorylation in human A549 cells at 10 uM incubated for 72 hrs by Western blotting based immunoassay; assay type: cell-based
[20] = test system: Docetaxel-resistant DU145 cell; test: Inhibition of side population phenotype in human Docetaxel-resistant DU145 cell expressing ABCB1 at 10 uM incubated for 90 mins by DCV staining based flow cytometric analysis; assay type: functional
[21] = test system: Paclitaxel-resistant IGROV-1 cell; test: Downregulation of STAT5 protein expression in human Paclitaxel-resistant IGROV-1 cells expressing ABCB1 at 10 uM incubated for 72 hrs by Western blotting based immunoassay; assay type: functional
MCF7 [22] = test: Effect on STAT5 protein expression in human MCF7 cells at 10 uM incubated for 72 hrs by Western blotting based immunoassay; assay type: functional, cell-based
A549 [23] = test: Inhibition of side population phenotype in human A549 cells expressing ABCC1 at 10 uM incubated for 90 mins by DCV staining based flow cytometric analysis; assay type: functional, cell-based
A2780/Taxol [24] = test: Inhibition of side population phenotype in human Paclitaxel-resistant A2780 cells expressing ABCB1 at 10 uM incubated for 90 mins by DCV staining based flow cytometric analysis; assay type: functional, cell-based
A549 [25] = test: Effect on STAT5 protein expression in human A549 cells at 10 uM incubated for 72 hrs by Western blotting based immunoassay; assay type: functional, cell-based
[26] = test system: Docetaxel-resistant PC-3 cell; test: Enhancement of docetaxel-induced anti-metabolic activity against human Docetaxel-resistant PC-3 cell assessed as reduction in metabolic activity at 10 uM measured after 72 hrs by MTT assay; assay type: functional, cell-based
[27] = test system: Paclitaxel-resistant A2780; test: Inhibition of STAT5 phosphorylation in human Paclitaxel-resistant A2780 cells expressing ABCB1 at 10 uM incubated for 72 hrs by Western blotting based immunoassay; assay type: cell-based
A2780/Taxol [28] = test: Effect on STAT5 protein expression in human Paclitaxel-resistant A2780 cells expressing ABCB1 at 10 uM incubated for 72 hrs by Western blotting based immunoassay; assay type: functional, cell-based
[29] = test system: Docetaxel-resistant DU145 cell; test: Enhancement of docetaxel-induced anti-metabolic activity against human Docetaxel-resistant DU145 cell assessed as reduction in metabolic activity at 10 uM measured after 72 hrs by MTT assay; assay type: functional, cell-based
[30] = test system: Paclitaxel-resistant IGROV-1 cell; test: Enhancement of paclitaxel-induced anti-metabolic activity in human Paclitaxel-resistant IGROV-1 cells assessed as reduction in metabolic activity upto 300 nM measured after 72 hrs by MTT assay; assay type: functional, cell-based
[31] = test system: Paclitaxel-resistant IGROV-1 cell; test: Inhibition of STAT5 phosphorylation in human Paclitaxel-resistant IGROV-1 cells expressing ABCB1 at 10 uM incubated for 72 hrs by Western blotting based immunoassay
MCF7 [32] = test: Inhibition of STAT5 phosphorylation in human MCF7 cells at 10 uM incubated for 72 hrs by Western blotting based immunoassay; assay type: cell-based

COc1ccc(CCN(C)CCCC(C#N)(c2ccc(OC)c(OC)c2)C(C)C)cc1OC (configuration not stated)
Activity (K-562R [1]): inactive
Activity (K562): inactive
Activity (K-562R [2]): Active

CCCc1nc2ccccc2n1Cc1ccc(-c2ccc(C(=O)OC)cc2)cc1
inhibition (K-562R [3]): Active
viability at 10 µM (K-562R [4]): ~75%
Activity (K562-r [5]): inactive
Activity (COS-7): Non-toxic
Activity (K-562R [6]): inactive
inhibition (K562-r [7]): Active
inhibition (K562-r [8]): Active

CCCc1nc2ccccc2n1Cc1ccccc1C(N)=O
viability at 10 µM (K-562R [4]): ~75%
Activity (COS-7): Non-toxic
Activity (K-562R [9]): inactive

COc1cc2c(cc1OC)CN(CCc1ccc(NC(=O)c3cccc4c(=O)c5cccc(OC)c5[nH]c34)cc1)CC2
Activity (K-562R [1]): inactive
Activity (K562): inactive
Activity (K562-r [5]): inactive
Activity (K562-r [10]): inactive
inhibition (K-562R [11]): Active
Activity (K-562R [2]): Active
Activity (K562-r [12]): inactive

CCCc1nc2ccccc2n1Cc1ccc(-c2cccc(C(=O)O)c2)cc1
Activity (COS-7): Non-toxic
Activity (K-562R [9]): inactive

CCCc1nc2ccccc2n1Cc1ccc(-c2ccccc2C(=O)OC)cc1
inhibition (K-562R [3]): Active
Activity (K562-r [5]): inactive
Activity (COS-7): Non-toxic
Activity (K-562R [6]): inactive
inhibition (K562-r [8]): Active; Lesser Effect Observed
Activity (K562-r [12]): inactive

CCCc1nc2ccccc2n1Cc1ccc(C(=O)OC)cc1
inhibition (K-562R [3]): inactive
Activity (COS-7): Non-toxic
viability at 10 µM (K-562R [13]): 34%
Activity (K-562R [14]): 44%

CCCc1nc2ccccc2n1Cc1ccc(C(N)=O)cc1
Activity (COS-7): Non-toxic
Activity (K-562R [9]): inactive

CCCc1nc2ccccc2n1Cc1ccc(-c2ccc(C(N)=O)cc2)cc1
inhibition (MCF7 [15]): inactive
Activity (A2780/Taxol [16]): Active
inhibition [17]: Active
inhibition [18]: Active
inhibition (K-562R [3]): Active
Activity (K562-r [5]): inactive
inhibition (A549 [19]): Active
inhibition [20]: Active
Activity (COS-7): Non-toxic
Activity [21]: Active
Activity (K-562R [6]): inactive
Activity (MCF7 [22]): inactive
inhibition (K562-r [7]): Active
inhibition (A549 [23]): inactive
inhibition (A2780/Taxol [24]): Active
Activity (A549 [25]): inactive
Activity [26]: Active
inhibition [27]: Active
Activity (A2780/Taxol [28]): inactive
inhibition (K562-r [8]): Active
Activity [29]: Active
Activity [30]: Active
inhibition [31]: Active
inhibition (MCF7 [32]): Active

C/C=C/C[C@@H](C)C(=O)[C@H]1C(=O)N[C@@H](C(C)C)C(=O)N(C)CC(=O)N(C)[C@@H](CC(C)C)C(=O)N[C@@H](C(C)C)C(=O)N(C)[C@@H](CC(C)C)C(=O)N[C@@H](C)C(=O)N[C@H](C)C(=O)N(C)[C@@H](CC(C)C)C(=O)N(C)[C@@H](CC(C)C)C(=O)N(C)[C@@H](C(C)C)C(=O)N1C
Activity (K-562R [1]): inactive
Activity (K562): inactive
Activity (K-562R [2]): Active

CCCc1nc2ccccc2n1Cc1ccc(-c2cccc(C(=O)OC)c2)cc1
Activity (COS-7): Non-toxic
viability at 10 µM (K-562R [13]): 34%

CCCc1nc2ccccc2n1Cc1ccccc1C(=O)OC
inhibition (K-562R [3]): inactive
Activity (K562-r [5]): inactive
Activity (COS-7): Non-toxic
Activity (K-562R [6]): inactive
viability at 10 µM (K-562R [13]): 34%
Activity (K-562R [14]): 44%
inhibition (K562-r [8]): Active; Lesser Effect Observed
Activity (K562-r [12]): inactive

CCCc1nc2ccccc2n1Cc1ccc(C(=O)O)cc1
Activity (COS-7): Non-toxic
Activity (K-562R [9]): inactive

CCCc1nc2ccccc2n1Cc1ccccc1C(=O)O
Activity (COS-7): Non-toxic
Activity (K-562R [9]): inactive

CCCc1nc2ccccc2n1Cc1ccc(-c2ccccc2C(=O)O)cc1
Activity (COS-7): Non-toxic
Activity (K-562R [9]): inactive

CCCc1nc2ccccc2n1Cc1cccc(C(N)=O)c1
Activity (COS-7): Non-toxic
Activity (K-562R [9]): inactive

CCCc1nc2ccccc2n1Cc1ccc(-c2ccc(C(=O)O)cc2)cc1
Activity (COS-7): Non-toxic
Activity (K-562R [9]): inactive

CCCc1nc2ccccc2n1Cc1cccc(C(=O)OC)c1
inhibition (K-562R [3]): inactive
Activity (COS-7): Non-toxic
viability at 10 µM (K-562R [13]): 34%
Activity (K-562R [14]): 44%

CCCc1nc2ccccc2n1Cc1ccc(-c2ccccc2C(N)=O)cc1
Activity (COS-7): Non-toxic

CCCc1nc2ccccc2n1Cc1ccc(-c2cccc(C(N)=O)c2)cc1
inhibition (MCF7 [15]): inactive
Activity (A2780/Taxol [16]): Active
inhibition [17]: Active
inhibition [18]: Active
inhibition (K-562R [3]): Active
Activity (K562-r [5]): inactive
inhibition (A549 [19]): Active
inhibition [20]: Active
Activity (COS-7): Non-toxic
Activity [21]: Active
Activity (K-562R [6]): inactive
Activity (MCF7 [22]): inactive
inhibition (K562-r [7]): Active
inhibition (A549 [23]): inactive
inhibition (A2780/Taxol [24]): Active
Activity (A549 [25]): inactive
Activity [26]: Active
inhibition [27]: Active
Activity (A2780/Taxol [28]): inactive
inhibition (K562-r [8]): Active; Lesser Effect Observed
Activity [29]: Active
Activity [30]: Active
inhibition [31]: Active
inhibition (MCF7 [32]): Active

CCCc1nc2ccccc2n1Cc1cccc(C(=O)O)c1
Activity (COS-7): Non-toxic
Activity (K-562R [9]): inactive

Source: ChEMBL document CHEMBL6087448, “Eradication of Therapy-Resistant Cancer Stem Cells by Novel Telmisartan Derivatives” (J Med Chem, 2025)
